Earlier results on one compound are cited in PubChem BioAssay AID1259409 (Chemical Carcinogenesis Research Information System (CCRIS), 2018).

The subject of this data set is rodent chemically induced tumor inhibition, incidence and multiplicity. Put plainly: CCRIS tumor inhibitor studies. Particulars: Carcinogen: 7,12-DIMETHYLBENZ[A]ANTHRACENE, 57-97-6, Route [Inhibitor]: SUBCUTANEOUS, Promoter: NONE USED.

`CC(C)C[C@H]1C(=O)N2CCC[C@H]2[C@]2(O)O[C@](NC(=O)[C@@H]3C=C4c5cccc6[nH]c(Br)c(c56)C[C@H]4N(C)C3)(C(C)C)C(=O)N12`: the “tumour outcome (control, treated, inhibition, significance)” value runs as follows: (Dose [Inhibitor]: 0.1 MG 1/D FOR 81 D BEGINNING 30 D PRIOR TO FIRST CARCINOGEN DOSE TO 30 D POST LAST CARCINOGEN DOSE (STUDY DURATION: 31, Species: MOUSE, Strain/Sex: BALB/FEMALE, Target Tissue: Type of Lesion: MAMMARY GLAND: CARCINOMA, Dose [Carcinogen]: 1 MG IN SESAME OIL 1/WK FOR 4 WK) 8%, 8%, 0%, not significant; (Dose [Inhibitor]: 0.1 MG/30 G BW FOR 81 D BEGINNING 30 D POST LAST CARCINOGEN DOSE (STUDY DURATION: 27 WK), Species: MOUSE, Strain/Sex: BALB/FEMALE, Target Tissue: Type of Lesion: MAMMARY GLAND: CARCINOMA, Dose [Carcinogen]: 1 MG IN SESAME OIL 1/WK FOR 4 WK) 7%, 8%, -14%, not significant; (Dose [Inhibitor]: 0.4 MG/100 G BW 1/D FOR 50 D BEGINNING 30 D POST LAST CARCINOGEN DOSE (90 D TO 140 D OF AGE) (STUDY DURATION: 25 WK), Species: RAT, Strain/Sex: LEWIS/FEMALE, Target Tissue: Type of Lesion: MAMMARY GLAND: CARCINOMA, Dose [Carcinogen]: 10 MG IN SESAME OIL ONCE AT 56 D OF AGE AND ONCE AT 63 D OF AGE) 94%, 56%, 40%, p<0.005; (Dose [Inhibitor]: 0.4 MG/100 G BW 1/D FOR 61 D BEGINNING 27 D PRIOR TO FIRST CARCINOGEN DOSE TO 27 D POST LAST CARCINOGEN DOSE (29 TO 90 D, Species: RAT, Strain/Sex: LEWIS/FEMALE, Target Tissue: Type of Lesion: MAMMARY GLAND: CARCINOMA, Dose [Carcinogen]: 10 MG IN SESAME OIL ONCE AT 56 D OF AGE AND ONCE AT 63 D OF AGE) 68%, 60%, 12%, not significant; (Dose [Inhibitor]: 0.4 MG/100 G BW 4/WK FOR 20 WK BEGINNING 12 D PRIOR TO FIRST CARCINOGEN DOSE (STUDY DURATION: 152 D), Species: RAT, Strain/Sex: LONG-EVANS/FEMALE, Target Tissue: Type of Lesion: HEMATOPOIETIC SYSTEM: LEUKEMIA (UNDIFFERENTIATED CELL), Dose [Carcinogen]: 10 MG IN SESAME OIL 1/2 WK FOR 12 WK (6 TOTAL DOSES)) 13/40 (33%), 15/41 (36%), -9%, not significant; (Dose [Inhibitor]: 0.4 MG/100 G BW 4/WK FOR 35 WK BEGINNING 12 D PRIOR TO FIRST CARCINOGEN DOSE (STUDY DURATION: 257 D), Species: RAT, Strain/Sex: LONG-EVANS/MALE, Target Tissue: Type of Lesion: HEMATOPOIETIC SYSTEM: LEUKEMIA (UNDIFFERENTIATED CELL), Dose [Carcinogen]: 10 MG IN SESAME OIL 1/2 WK FOR 12 WK (6 TOTAL DOSES)) 10/38 (26%), 8/38 (21%), 19%, not significant. Moreover, the “tumour outcome (control, treated, inhibition, significance)” value (Dose [Inhibitor]: 0.4 MG/D FROM 26 TO 93 D OF AGE BEGINNING 30 D PRIOR TO FIRST CARCINOGEN DOSE (STUDY DURATION: 9 MO AFTER LAST DMBA TREA, Species: RAT, Strain/Sex: LEWIS/FEMALE, Target Tissue: Type of Lesion: MAMMARY GLAND: CARCINOMA, Dose [Carcinogen]: 10 MG TWICE ONCE AT 56 D AND ONCE AT 63 D OF AGE) is listed as 70%, 62%, 11%, not significant; the “tumour outcome (control, treated, inhibition, significance)” value (Dose [Inhibitor]: 0.4 MG/D FROM 30 TO 90 D OF AGE BEGINNING 30 D PRIOR TO CARCINOGEN DOSE (STUDY DURATION: 6 MO AFTER DMBA TREATMENT), Species: RAT, Strain/Sex: SPRAGUE-DAWLEY/FEMALE, Target Tissue: Type of Lesion: MAMMARY GLAND: CARCINOMA, Dose [Carcinogen]: 20 MG ONCE AT 60 D OF AGE) is on record as 96%, 82%, 15%, p<0.05; the “tumour outcome (control, treated, inhibition, significance)” value (Dose [Inhibitor]: 0.4 MG/D FROM 30 TO 90 D OF AGE BEGINNING 30 D PRIOR TO CARCINOGEN DOSE (STUDY DURATION: 9 MO AFTER AMBA TREATMENT), Species: RAT, Strain/Sex: SPRAGUE-DAWLEY/FEMALE, Target Tissue: Type of Lesion: MAMMARY GLAND: CARCINOMA, Dose [Carcinogen]: 5 MG ONCE AT 60 D OF AGE) was 82%, 60%, 27%, p<0.05; the “tumour outcome (control, treated, inhibition, significance)” value (Dose [Inhibitor]: 0.4 MG/D FROM 30 TO 90 D OF AGE BEGINNING 30 D PRIOR TO CARCINOGEN DOSE (STUDY DURATION: 9 MO AFTER DMBA TREATMENT), Species: RAT, Strain/Sex: SPRAGUE-DAWLEY/FEMALE, Target Tissue: Type of Lesion: MAMMARY GLAND: FIBROADENOMA, Dose [Carcinogen]: 5 MG ONCE AT 60 D OF AGE) is 25%, 15%, 40%, not significant; the “tumour outcome (control, treated, inhibition, significance)” value (Dose [Inhibitor]: 0.4 MG/D FROM 30 TO 90 D OF AGE BEGINNING 30 D PRIOR TO CARCINOGEN DOSE (STUDY DURATION: 9 MO AFTER LAST DMBA TREATMENT), Species: RAT, Strain/Sex: LONG-EVANS/FEMALE, Target Tissue: Type of Lesion: MAMMARY GLAND: CARCINOMA, Dose [Carcinogen]: 20 MG ONCE AT 60 D OF AGE) is recorded as 25%, 22%, 12%, not significant; the “tumour outcome (control, treated, inhibition, significance)” value (Dose [Inhibitor]: 0.4 MG/D FROM 30 TO 90 D OF AGE BEGINNING 30 D PRIOR TO CARCINOGEN DOSE (STUDY DURATION: 9 MO AFTER LAST DMBA TREATMENT), Species: RAT, Strain/Sex: LONG-EVANS/FEMALE, Target Tissue: Type of Lesion: MAMMARY GLAND: FIBROADENOMA, Dose [Carcinogen]: 20 MG ONCE AT 60 D OF AGE) is listed as 12%, 3%, 75%, not significant. For the same compound, the “tumour outcome (control, treated, inhibition, significance)” value runs as follows: (Dose [Inhibitor]: 0.4 MG/D FROM 30 TO 90 D OF AGE BEGINNING 30 D PRIOR TO CARCINOGEN DOSE (STUDY DURATION: 12 MO AFTER DMBA TREATMENT), Species: RAT, Strain/Sex: SPRAGUE-DAWLEY/FEMALE, Target Tissue: Type of Lesion: MAMMARY GLAND: CARCINOMA, Dose [Carcinogen]: 1.25 MG ONCE AT 60 D OF AGE) 10%, 10%, 0%, not significant; (Dose [Inhibitor]: 0.4 MG/D FROM 30 TO 90 D OF AGE BEGINNING 30 D PRIOR TO CARCINOGEN DOSE (STUDY DURATION: 12 MO AFTER DMBA TREATMENT), Species: RAT, Strain/Sex: SPRAGUE-DAWLEY/FEMALE, Target Tissue: Type of Lesion: MAMMARY GLAND: FIBROADENOMA, Dose [Carcinogen]: 1.25 MG ONCE AT 60 D OF AGE) 90%, 80%, 11%, p<0.05.
